Source: ChEMBL document CHEMBL1201862, “PubChem BioAssay data set” (2004)
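Following 48 hours of exposure in 96-well plates, responses at five concentrations were used to interpolate endpoints linearly. At the GI50, growth is halved.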 The source made the active and inactive calls. No stated cut-off is given here; in the data, active = GI50 up to about 1.1 µM and inactive = higher.

What was measured:
Test in all cases: NCI anticancer screen, dose series, 48 h
T47D = test system: T47D
K562 = test system: K562
HCT-116 = test system: HCT-116
MDA-MB-435 = test system: MDA-MB-435
SNB-75 = test system: SNB-75
LOX IMVI = test system: LOX IMVI
HCT-15 = test system: HCT-15
M14 = test system: M14
SN12C = test system: SN12C
MOLT-4 = test system: MOLT-4
HOP-92 = test system: HOP-92
HT-29 = test system: HT-29
NCI-H23 = test system: NCI-H23
NCI/ADR-RES = test system: NCI/ADR-RES
HL-60 = test system: HL-60
SR = test system: SR
SNB-19 = test system: SNB-19
A498 = test system: A498
SF-268 = test system: SF-268
SK-OV-3 = test system: SK-OV-3

Row | SMILES | GI50 (T47D) | GI50 (K562) | GI50 (HCT-116) | GI50 (MDA-MB-435) | GI50 (SNB-75) | GI50 (LOX IMVI) | GI50 (HCT-15) | GI50 (M14) | GI50 (SN12C) | GI50 (MOLT-4) | GI50 (HOP-92) | GI50 (HT-29) | GI50 (NCI-H23) | GI50 (NCI/ADR-RES) | GI50 (HL-60) | GI50 (SR) | GI50 (SNB-19) | GI50 (A498) | GI50 (SF-268) | GI50 (SK-OV-3)
1 | O=C(N[C@@H](Cc1ccccc1)B(O)O)[C@H](Cc1cccc2ccccc12)NC(=O)N1CCOCC1 | 0.00104 µM (active) | 0.00371 µM (active) | 0.000412 µM (active) | 0.000298 µM (active) | < 0.01 µM (active) | 0.00124 µM (active) | 0.155 µM | 0.00168 µM (active) | 0.00371 µM (active) | 0.000371 µM (active) | 0.00233 µM (active) | 0.00239 µM (active) | 0.00172 µM (active) | 0.938 µM (active) | < 0.01 µM (active) | 0.00131 µM (active) | 0.00708 µM (active) | 0.00261 µM (active) | 0.00161 µM (active) | –
2 | CN(C)CC1CCCCCCCCCC(CN(C)C)C1=O (stereo not drawn) | 7.06 µM (inactive) | – | > 26.7 µM (inactive) | 4.94 µM (inactive) | 17.1 µM (inactive) | – | > 22.3 µM | 16.9 µM (inactive) | > 25.4 µM (inactive) | 7.03 µM (inactive) | 20.4 µM (inactive) | 14.3 µM (inactive) | > 27.6 µM (inactive) | 6.43 µM (inactive) | 15.1 µM (inactive) | 17.6 µM (inactive) | > 39.7 µM (inactive) | > 28.4 µM (inactive) | > 34.3 µM (inactive) | > 28.8 µM (inactive)
3 | CC(NC(CC12CC3CC(CC(C3)C1)C2)C(N)=O)c1ccccc1 (stereo not drawn) | 35.6 µM (inactive) | 17.5 µM (inactive) | 18.7 µM (inactive) | 16.7 µM (inactive) | – | 15.7 µM (inactive) | 31.7 µM | 21.1 µM (inactive) | – | 16.2 µM (inactive) | – | 21 µM (inactive) | – | 17.8 µM (inactive) | 10.1 µM (inactive) | 17.4 µM (inactive) | 28.9 µM (inactive) | 14.6 µM (inactive) | 25 µM (inactive) | 5.27 µM (inactive)
4 | CC(=O)Oc1c(C)c2c(c3ccccc13)OC(C)(C)C2 | 20.3 µM (inactive) | 29.2 µM (inactive) | 18 µM (inactive) | 17.2 µM (inactive) | 19 µM (inactive) | – | 17 µM | 16.4 µM (inactive) | 18.6 µM (inactive) | 15.1 µM (inactive) | 17.8 µM (inactive) | 18.1 µM (inactive) | 14 µM (inactive) | 21 µM (inactive) | 22.4 µM (inactive) | 17.7 µM (inactive) | 26.3 µM (inactive) | 20.9 µM (inactive) | 15.5 µM (inactive) | 30.5 µM (inactive)
5 | C[C@]12CC[C@H](O)CC1=CC[C@@H]1[C@@H]2CC[C@]2(C)NC(=O)/C(=C\c3ccccc3)C[C@@H]12 | 12.3 µM (inactive) | 39.6 µM (inactive) | 14.2 µM (inactive) | 18.3 µM (inactive) | 19.6 µM (inactive) | 16.8 µM (inactive) | 17.4 µM | 15.8 µM (inactive) | 23 µM (inactive) | 26.5 µM (inactive) | – | 14.3 µM (inactive) | 18.2 µM (inactive) | 18.5 µM (inactive) | – | 28.7 µM (inactive) | 14.7 µM (inactive) | 15.2 µM (inactive) | 15.5 µM (inactive) | 18.9 µM (inactive)
6 | COc1ccc(N2C(=O)C3c4[nH]c5ccccc5c4C4CCCCCCCC4C3C2=O)cc1 (stereo not drawn) | > 10 µM (inactive) | > 10 µM (inactive) | 1.7 µM (inactive) | > 10 µM (inactive) | 5.22 µM (inactive) | – | > 10 µM | > 10 µM (inactive) | > 10 µM (inactive) | > 10 µM (inactive) | – | > 10 µM (inactive) | > 10 µM (inactive) | > 10 µM (inactive) | > 10 µM (inactive) | > 10 µM (inactive) | > 10 µM (inactive) | > 10 µM (inactive) | > 10 µM (inactive) | > 10 µM (inactive)
7 | CCOC(=O)c1c2cccccc-2nc1Nc1cccc2c(C)ccnc12 | 2.66 µM (inactive) | 4.01 µM (inactive) | 5.12 µM (inactive) | > 10 µM (inactive) | – | > 10 µM (inactive) | 6.31 µM | > 10 µM (inactive) | > 10 µM (inactive) | 5.16 µM (inactive) | > 10 µM (inactive) | 4.89 µM (inactive) | > 10 µM (inactive) | > 10 µM (inactive) | 4.47 µM (inactive) | 9.95 µM (inactive) | > 10 µM (inactive) | > 10 µM (inactive) | > 10 µM (inactive) | > 10 µM (inactive)
8 | C=CCOC(=O)c1c(C)[n+]([O-])c2cc(Cl)c(Cl)cc2[n+]1[O-] | 18.9 µM (inactive) | 27.9 µM (inactive) | 17.8 µM (inactive) | 19.8 µM (inactive) | – | 15.5 µM (inactive) | 13.5 µM | 18.2 µM (inactive) | 24.3 µM (inactive) | 15.1 µM (inactive) | 13.7 µM (inactive) | 18.2 µM (inactive) | 14.4 µM (inactive) | 20.6 µM (inactive) | 16.6 µM (inactive) | 4.54 µM (inactive) | 74.8 µM (inactive) | 27.5 µM (inactive) | 14.7 µM (inactive) | 28.8 µM (inactive)
9 | COc1ccc(C2(C3c4cc(OC)c(OC)cc4CCN3C)SCCCS2)cc1O (stereo not drawn) | > 100 µM (inactive) | 95.1 µM (inactive) | 67.9 µM (inactive) | > 100 µM (inactive) | – | > 100 µM (inactive) | > 100 µM | > 100 µM (inactive) | > 100 µM (inactive) | 26 µM (inactive) | 76.2 µM (inactive) | 49.3 µM (inactive) | > 100 µM (inactive) | 94 µM (inactive) | > 100 µM (inactive) | 68.1 µM (inactive) | > 100 µM (inactive) | > 100 µM (inactive) | > 100 µM (inactive) | 72.9 µM (inactive)
10 | O=C1/C(=C\c2cccc(Oc3ccccc3)c2)S(=O)(=O)C(c2ccccc2)N1c1cc(Cl)ccc1Cl (stereo not drawn) | 20.3 µM (inactive) | 3.74 µM (inactive) | 4.6 µM (inactive) | 8.13 µM (inactive) | 23.9 µM (inactive) | 5.25 µM (inactive) | 21 µM | 16.5 µM (inactive) | 16.9 µM (inactive) | 3.84 µM (inactive) | 16.9 µM (inactive) | 5.96 µM (inactive) | 19.4 µM (inactive) | 22.6 µM (inactive) | – | 6.31 µM (inactive) | 16 µM (inactive) | 39.2 µM (inactive) | 18.5 µM (inactive) | 39.4 µM (inactive)
11 | COc1cc(/C=C/C(=O)OCC23CC[C@@]4(C(=O)O)CCC(C)[C@H](C)C4C2=CCC2[C@@]4(C)CC[C@H](O)C(C)(C)C4CC[C@]23C)ccc1O (stereo partly drawn) | 48.5 µM (inactive) | 27 µM (inactive) | 17.5 µM (inactive) | 24.5 µM (inactive) | – | 15.6 µM (inactive) | 21.6 µM | 23.2 µM (inactive) | 8.09 µM (inactive) | 6.68 µM (inactive) | – | 20.4 µM (inactive) | 3.89 µM (inactive) | 15.6 µM (inactive) | 23.4 µM (inactive) | 19.4 µM (inactive) | 31.2 µM (inactive) | 32.4 µM (inactive) | 4.66 µM (inactive) | 29 µM (inactive)
12 | Cc1cc(C#N)c(Nc2ccc(F)cc2[N+](=O)[O-])s1 | > 100 µM (inactive) | > 100 µM (inactive) | > 100 µM (inactive) | > 100 µM (inactive) | 21.3 µM (inactive) | – | > 100 µM | 71.1 µM (inactive) | > 100 µM (inactive) | > 100 µM (inactive) | 33.4 µM (inactive) | – | > 100 µM (inactive) | > 100 µM (inactive) | – | > 100 µM (inactive) | > 100 µM (inactive) | > 100 µM (inactive) | 25.5 µM (inactive) | > 100 µM (inactive)
13 | Nc1nc(Cl)cc(NCCO)n1 | > 100 µM (inactive) | > 100 µM (inactive) | > 100 µM (inactive) | > 100 µM (inactive) | > 100 µM (inactive) | > 100 µM (inactive) | > 100 µM | > 100 µM (inactive) | > 100 µM (inactive) | > 100 µM (inactive) | > 100 µM (inactive) | > 100 µM (inactive) | > 100 µM (inactive) | > 100 µM (inactive) | – | > 100 µM (inactive) | > 100 µM (inactive) | > 100 µM (inactive) | > 100 µM (inactive) | > 100 µM (inactive)
14 | CN1CCC(CNC(=O)CCCCCCCCC(=O)NCC2(c3ccccc3)CCN(C)CC2)(c2ccccc2)CC1 | 30.7 µM (inactive) | 77.1 µM (inactive) | 60.1 µM (inactive) | > 100 µM (inactive) | 44.2 µM (inactive) | > 100 µM (inactive) | > 100 µM | 57.3 µM (inactive) | > 100 µM (inactive) | > 100 µM (inactive) | – | 45.5 µM (inactive) | – | > 100 µM (inactive) | > 100 µM (inactive) | > 100 µM (inactive) | > 100 µM (inactive) | > 100 µM (inactive) | 14.3 µM (inactive) | > 100 µM (inactive)
15 | Cc1cn(C2CC(n3cc(Cn4cc(I)c(=O)[nH]c4=O)nn3)C(CO)O2)c(=O)[nH]c1=O (stereo not drawn) | > 100 µM (inactive) | – | > 100 µM (inactive) | > 100 µM (inactive) | > 100 µM (inactive) | – | > 100 µM | > 100 µM (inactive) | > 100 µM (inactive) | > 100 µM (inactive) | > 100 µM (inactive) | – | > 100 µM (inactive) | > 100 µM (inactive) | 0.0119 µM (active) | < 0.01 µM (active) | > 100 µM (inactive) | > 100 µM (inactive) | > 100 µM (inactive) | > 100 µM (inactive)
